# Reference: ChEMBL document CHEMBL3885881, “DrugMatrix”
# Species on record: Rattus norvegicus
# Assay: DrugMatrix - Regimen: Daily Repeat
# Assay type: toxicity, organism-based, Sprague-Dawley
# Design: regimen Daily Repeat, gender Male, age 6-8 weeks
# Details: in vivo, po, route oral GAVAGE, […]; for ABSOLUTE BASOPHIL / ABSOLUTE EOSINOPHIL / ABSOLUTE LYMPHOCYTE / ABSOLUTE MONOCYTE / ABSOLUTE SEGMENTED NEUTROPHIL / BASOPHIL / EOSINOPHIL / ERYTHROCYTE COUNT / HEMATOCRIT / HEMOGLOBIN / LEUKOCYTE COUNT / LYMPHOCYTE / MEAN CORPUSCULAR HEMOGLOBIN / MEAN CORPUSCULAR HEMOGLOBIN CONCENTRATION / MEAN CORPUSCULAR VOLUME / MONOCYTE / NEUTROPHIL / NUCLEATED RED BLOOD CELLS / PLATELET COUNT: tissue Blood; for ALANINE AMINOTRANSFERASE / ALBUMIN / ALKALINE PHOSPHATASE / ASPARTATE AMINOTRANSFERASE / BLOOD UREA NITROGEN / CARBON DIOXIDE / CHLORIDE / CHOLESTEROL / CREATINE PHOSPHOKINASE / CREATININE / GLUCOSE / LACTATE DEHYDROGENASE / LIPASE / PHOSPHORUS / POTASSIUM / SODIUM / TOTAL BILIRUBIN / TOTAL PROTEIN / URIC ACID: tissue Plasma
# [1] = 3 mg/kg, 120 h, dose level Low, time 5 day
# [2] = 775 mg/kg, 72 h, dose level High, time 3 day
# [3] = 775 mg/kg, 120 h, dose level High, time 5 day
compound,measurement,setting,value
CS(=O)(=O)c1ccc(C2=C(c3ccccc3)C(=O)OC2)cc1 [ROFECOXIB],ABSOLUTE BASOPHIL,[1],0 CELLS/uL
same,ABSOLUTE EOSINOPHIL,[1],0 CELLS/uL
same,ABSOLUTE LYMPHOCYTE,[1],7546 CELLS/uL
same,ABSOLUTE MONOCYTE,[1],71.67 CELLS/uL
same,ABSOLUTE SEGMENTED NEUTROPHIL,[1],782.33 CELLS/uL
same,BASOPHIL,[1],0%
same,EOSINOPHIL,[1],0%
same,ERYTHROCYTE COUNT,[1],5.17 x10E6/uL
same,HEMATOCRIT,[1],33.27%
same,HEMOGLOBIN,[1],13.07 G/DL
same,LEUKOCYTE COUNT,[1],8.4 x10E3/uL
same,LYMPHOCYTE,[1],90.67%
same,MEAN CORPUSCULAR HEMOGLOBIN,[1],25.27 pg
same,MEAN CORPUSCULAR HEMOGLOBIN CONCENTRATION,[1],39.27 G/DL
same,MEAN CORPUSCULAR VOLUME,[1],64.33 fL
same,MONOCYTE,[1],1%
same,NEUTROPHIL,[1],8.33%
same,NUCLEATED RED BLOOD CELLS,[1],0 /100WBC
same,PLATELET COUNT,[1],1212.67 x10E3/uL
same,ALANINE AMINOTRANSFERASE,[1],57.33 u/L
same,ALBUMIN,[1],4.17 G/DL
same,ALKALINE PHOSPHATASE,[1],300.67 u/L
same,ASPARTATE AMINOTRANSFERASE,[1],85.67 u/L
same,BLOOD UREA NITROGEN,[1],12.33 mg/dL
same,CARBON DIOXIDE,[1],27.67 mmol/L
same,CHLORIDE,[1],100.67 MEQ/L
same,CHOLESTEROL,[1],62 mg/dL
same,CREATINE PHOSPHOKINASE,[1],325.33 u/L
same,CREATININE,[1],0.22 mg/dL
same,GLUCOSE,[1],165 mg/dL
same,LACTATE DEHYDROGENASE,[1],77 u/L
same,LIPASE,[1],11.33 u/L
same,PHOSPHORUS,[1],9.4 mg/dL
same,POTASSIUM,[1],6.14 MEQ/L
same,SODIUM,[1],145.9 MEQ/L
same,TOTAL BILIRUBIN,[1],0.13 mg/dL
same,TOTAL PROTEIN,[1],6.1 G/DL
same,URIC ACID,[1],0.73 mg/dL
same,ABSOLUTE BASOPHIL,[2],0 CELLS/uL
same,ABSOLUTE EOSINOPHIL,[2],0 CELLS/uL
same,ABSOLUTE LYMPHOCYTE,[2],11625.33 CELLS/uL
same,ABSOLUTE MONOCYTE,[2],298.67 CELLS/uL
same,ABSOLUTE SEGMENTED NEUTROPHIL,[2],1009.33 CELLS/uL
same,BASOPHIL,[2],0%
same,EOSINOPHIL,[2],0%
same,ERYTHROCYTE COUNT,[2],5.13 x10E6/uL
same,HEMATOCRIT,[2],32.27%
same,HEMOGLOBIN,[2],12.53 G/DL
same,LEUKOCYTE COUNT,[2],12.93 x10E3/uL
same,LYMPHOCYTE,[2],90%
same,MEAN CORPUSCULAR HEMOGLOBIN,[2],24.43 pg
same,MEAN CORPUSCULAR HEMOGLOBIN CONCENTRATION,[2],38.83 G/DL
same,MEAN CORPUSCULAR VOLUME,[2],62.93 fL
same,MONOCYTE,[2],2.33%
same,NEUTROPHIL,[2],7.67%
same,NUCLEATED RED BLOOD CELLS,[2],0.33 /100WBC
same,PLATELET COUNT,[2],877.67 x10E3/uL
same,ALANINE AMINOTRANSFERASE,[2],55.33 u/L
same,ALBUMIN,[2],3.53 G/DL
same,ALKALINE PHOSPHATASE,[2],313.67 u/L
same,ASPARTATE AMINOTRANSFERASE,[2],81.33 u/L
same,BLOOD UREA NITROGEN,[2],14.33 mg/dL
same,CARBON DIOXIDE,[2],26.67 mmol/L
same,CHLORIDE,[2],99.33 MEQ/L
same,CHOLESTEROL,[2],77.67 mg/dL
same,CREATINE PHOSPHOKINASE,[2],192.67 u/L
same,CREATININE,[2],0.21 mg/dL
same,GLUCOSE,[2],185.67 mg/dL
same,LACTATE DEHYDROGENASE,[2],91.33 u/L
same,LIPASE,[2],22.33 u/L
same,PHOSPHORUS,[2],10.4 mg/dL
same,POTASSIUM,[2],5.68 MEQ/L
same,SODIUM,[2],144.1 MEQ/L
same,TOTAL BILIRUBIN,[2],0.1 mg/dL
same,TOTAL PROTEIN,[2],5.6 G/DL
same,URIC ACID,[2],0.87 mg/dL
same,ABSOLUTE BASOPHIL,[3],0 CELLS/uL
same,ABSOLUTE EOSINOPHIL,[3],72.67 CELLS/uL
same,ABSOLUTE LYMPHOCYTE,[3],8378 CELLS/uL
same,ABSOLUTE MONOCYTE,[3],35.33 CELLS/uL
same,ABSOLUTE SEGMENTED NEUTROPHIL,[3],1314 CELLS/uL
same,BASOPHIL,[3],0%
same,EOSINOPHIL,[3],0.67%
same,ERYTHROCYTE COUNT,[3],4.79 x10E6/uL
same,HEMATOCRIT,[3],30.33%
same,HEMOGLOBIN,[3],11.77 G/DL
same,LEUKOCYTE COUNT,[3],9.8 x10E3/uL
same,LYMPHOCYTE,[3],84%
same,MEAN CORPUSCULAR HEMOGLOBIN,[3],24.53 pg
same,MEAN CORPUSCULAR HEMOGLOBIN CONCENTRATION,[3],38.8 G/DL
same,MEAN CORPUSCULAR VOLUME,[3],63.33 fL
same,MONOCYTE,[3],0.67%
same,NEUTROPHIL,[3],14.67%
same,NUCLEATED RED BLOOD CELLS,[3],0 /100WBC
same,PLATELET COUNT,[3],1142 x10E3/uL
same,ALANINE AMINOTRANSFERASE,[3],51 u/L
same,ALBUMIN,[3],3.33 G/DL
same,ALKALINE PHOSPHATASE,[3],298.67 u/L
same,ASPARTATE AMINOTRANSFERASE,[3],77.33 u/L
same,BLOOD UREA NITROGEN,[3],12.67 mg/dL
same,CARBON DIOXIDE,[3],28 mmol/L
same,CHLORIDE,[3],99.67 MEQ/L
same,CHOLESTEROL,[3],80 mg/dL
same,CREATINE PHOSPHOKINASE,[3],192.67 u/L
same,CREATININE,[3],0.34 mg/dL
same,GLUCOSE,[3],160.67 mg/dL
same,LACTATE DEHYDROGENASE,[3],72 u/L
same,LIPASE,[3],12.67 u/L
same,PHOSPHORUS,[3],9.2 mg/dL
same,POTASSIUM,[3],5.83 MEQ/L
same,SODIUM,[3],144.83 MEQ/L
same,TOTAL BILIRUBIN,[3],0.1 mg/dL
same,TOTAL PROTEIN,[3],5.6 G/DL
same,URIC ACID,[3],0.7 mg/dL
